In PubChem BioAssay AID248 (DTP/NCI, 2004):
“And” between values parts separate entries of the source, which are not always exact repeats. Equal entries are not always repeated. Inconclusive results and toxic doses are left out. No stated cut-off is given here; in the data, active means T/C of 150% or more; inactive means T/C below 125%.

Tested on: L1210 leukemia ip in BDF1 mice, survival T/C
Assay: NCI In Vivo Anticancer Drug Screen. Data for tumor model L1210 Leukemia (intraperitoneal) in B6D2F1 (BDF1) mice
Settings: endpoint: mean survival time, higher = longer survival
Outline: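 Antitumor effect is assessed in tumor-bearing animals. Survival in the compound arm is compared with a vehicle-dosed control arm and expressed as their quotient.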

[1] = dose: 100.0 mg/kg/injection, schedule: Q01DX001 (ip), vehicle: saline
[2] = dose: 100.0 mg/kg/injection, schedule: Q01DX009 (ip), vehicle: saline
[3] = dose: 200.0 mg/kg/injection, schedule: Q01DX001 (ip), vehicle: saline
[4] = dose: 100.0 mg/kg/injection, schedule: Q01DX001 (ip), vehicle: carboxymethylcellulose (CMC)
[5] = dose: 200.0 mg/kg/injection, schedule: Q01DX001 (ip), vehicle: carboxymethylcellulose (CMC)
[6] = dose: 400.0 mg/kg/injection, schedule: Q01DX001 (ip), vehicle: carboxymethylcellulose (CMC)
[7] = dose: 100.0 mg/kg/injection, schedule: Q04DX003 (ip), vehicle: saline with Tween-80
[8] = dose: 200.0 mg/kg/injection, schedule: Q04DX003 (ip), vehicle: saline with Tween-80
[9] = dose: 400.0 mg/kg/injection, schedule: Q04DX003 (ip), vehicle: saline with Tween-80
[10] = dose: 400.0 mg/kg/injection, schedule: Q01DX001 (ip), vehicle: saline
[11] = dose: 25.0 mg/kg/injection, schedule: Q01DX009 (ip), vehicle: saline
[12] = dose: 100.0 mg/kg/injection, schedule: Q04DX003 (ip), vehicle: saline

Measured: T/C

CC1OCCCCO1
inactive: dose: 50.0 mg/kg/injection, schedule: Q01DX001 (ip), vehicle: saline 106 % of control | [1] 102 % of control | [2] 96 % of control and 112 % of control | dose: 100.0 mg/kg/injection, schedule: Q04DX002 (ip), vehicle: saline 108 % of control and 86 % of control | [3] 103 % of control | dose: 200.0 mg/kg/injection, schedule: Q01DX009 (ip), vehicle: saline 102 % of control and 108 % of control | dose: 200.0 mg/kg/injection, schedule: Q04DX002 (ip), vehicle: saline 93 % of control and 100 % of control | dose: 400.0 mg/kg/injection, schedule: Q01DX009 (ip), vehicle: saline 98 % of control and 112 % of control | dose: 400.0 mg/kg/injection, schedule: Q04DX002 (ip), vehicle: saline 93 % of control and 95 % of control

CCOc1ccc(/C=N\NC(=O)c2ccco2)cc1OCC
inactive: [4] 93 % of control | [5] 95 % of control | [6] 97 % of control

CC(=O)CC(=O)NC(C)CCc1ccccc1 (centres undefined)
inactive: dose: 100.0 mg/kg/injection, schedule: Q01DX009 (ip), vehicle: saline with Tween-80 92 % of control | [7] 98 % of control | dose: 200.0 mg/kg/injection, schedule: Q01DX009 (ip), vehicle: saline with Tween-80 92 % of control | [8] 102 % of control | dose: 400.0 mg/kg/injection, schedule: Q01DX009 (ip), vehicle: saline with Tween-80 104 % of control | [9] 98 % of control

O=C(O)c1ccc(Br)cc1.[Ni]
inactive: dose: 25.0 mg/kg/injection, schedule: Q04DX002 (ip), vehicle: gum acacia 100 % of control | dose: 50.0 mg/kg/injection, schedule: Q04DX002 (ip), vehicle: gum acacia 101 % of control

c1cc[c]([Ge]([c]2ccccc2)[c]2ccccc2)cc1.c1ccc([Si](c2ccccc2)c2ccccc2)cc1
inactive: dose: 25.6 mg/kg/injection, schedule: Q04DX002 (ip), vehicle: saline with Tween-80 86 % of control | dose: 64.0 mg/kg/injection, schedule: Q04DX002 (ip), vehicle: saline with Tween-80 110 % of control | dose: 160.0 mg/kg/injection, schedule: Q04DX002 (ip), vehicle: saline with Tween-80 100 % of control | dose: 400.0 mg/kg/injection, schedule: Q04DX002 (ip), vehicle: saline with Tween-80 100 % of control

O=[N+]([O-])c1ccc2c(c1)/C(=N\O)c1cc(Cl)c(Cl)cc1-2
inactive: [4] 98 % of control | dose: 100.0 mg/kg/injection, schedule: Q04DX003 (ip), vehicle: acetone 94 % of control | [5] 98 % of control | dose: 200.0 mg/kg/injection, schedule: Q04DX003 (ip), vehicle: acetone 100 % of control | [6] 95 % of control | dose: 400.0 mg/kg/injection, schedule: Q04DX003 (ip), vehicle: acetone 96 % of control

Cc1cc(C)nc(SCC(=O)O)n1
inactive: dose: 50.0 mg/kg/injection, schedule: Q01DX001 (ip), vehicle: carboxymethylcellulose (CMC) 89 % of control | [4] 105 % of control | [5] 96 % of control | [6] 105 % of control

Cc1ccc(NCCN2CCOCC2)c2c(=O)c3ccccc3sc12
inactive: dose: 9.0 mg/kg/injection, schedule: Q01DX Z (ip), vehicle: methylcellulose (MC) 92 % of control | dose: 14.0 mg/kg/injection, schedule: Q01DX Z (ip), vehicle: methylcellulose (MC) 104 % of control | dose: 21.0 mg/kg/injection, schedule: Q01DX Z (ip), vehicle: methylcellulose (MC) 97 % of control | dose: 32.0 mg/kg/injection, schedule: Q01DX Z (ip), vehicle: methylcellulose (MC) 109 % of control

CC1(c2ccccc2)CC(c2ccccc2)=C(C#N)C(=O)N1 (centres undefined)
inactive: [1] 98 % of control | [3] 91 % of control | [10] 104 % of control

O=C(Nc1ccccc1C(=O)N/N=C/c1ccccc1Cl)c1ccccc1Cl
inactive: dose: 100.0 mg/kg/injection, schedule: Q01DX009 (ip), vehicle: Klucel (hydroxypropylcellulose) (HPC) 90 % of control | dose: 200.0 mg/kg/injection, schedule: Q01DX009 (ip), vehicle: Klucel (hydroxypropylcellulose) (HPC) 103 % of control | dose: 400.0 mg/kg/injection, schedule: Q01DX009 (ip), vehicle: Klucel (hydroxypropylcellulose) (HPC) 86 % of control

Cc1ccc(NP(Br)(c2ccccc2)(c2ccccc2)c2ccccc2)cc1
inactive: dose: 75.0 mg/kg/injection, schedule: Q01DX001 (ip), vehicle: acetone 95 % of control

O=[N+]([O-])c1ccc(N=C(Cl)c2cc(N3CCOCC3)ccn2)cc1
inactive: [1] 94 % of control | [3] 94 % of control | [10] 95 % of control

O=C(NCCCl)NC(Cc1ccccc1)C(=O)O (centres undefined)
inactive: dose: 100.0 mg/kg/injection, schedule: Q01DX001 (ip), vehicle: saline with Tween-80 94 % of control | dose: 200.0 mg/kg/injection, schedule: Q01DX001 (ip), vehicle: saline with Tween-80 94 % of control | dose: 400.0 mg/kg/injection, schedule: Q01DX001 (ip), vehicle: saline with Tween-80 91 % of control

O=C(OC(=O)c1cccc2ccccc12)c1cccc2ccccc12
inactive: [1] 94 % of control | [3] 102 % of control | [10] 94 % of control

Cc1ccc(C(C)(C#N)Nc2ccccc2)cc1 (centres undefined)
inactive: dose: 100.0 mg/kg/injection, schedule: Q01DX001 (ip), vehicle: Klucel (hydroxypropylcellulose) (HPC) 88 % of control | dose: 100.0 mg/kg/injection, schedule: Q04DX003 (ip), vehicle: Klucel (hydroxypropylcellulose) (HPC) 105 % of control | dose: 200.0 mg/kg/injection, schedule: Q01DX001 (ip), vehicle: Klucel (hydroxypropylcellulose) (HPC) 91 % of control | dose: 200.0 mg/kg/injection, schedule: Q04DX003 (ip), vehicle: Klucel (hydroxypropylcellulose) (HPC) 95 % of control | dose: 400.0 mg/kg/injection, schedule: Q01DX001 (ip), vehicle: Klucel (hydroxypropylcellulose) (HPC) 92 % of control | dose: 400.0 mg/kg/injection, schedule: Q04DX003 (ip), vehicle: Klucel (hydroxypropylcellulose) (HPC) 105 % of control

CCNc1ncnc2c1c(C(N)=S)cn2C1OC(CO)C(O)C1O (centres undefined)
inactive: dose: 12.5 mg/kg/injection, schedule: Q01DX005 (ip), vehicle: saline 111 % of control and 113 % of control | dose: 12.5 mg/kg/injection, schedule: Q01DX009 (ip), vehicle: Klucel (hydroxypropylcellulose) (HPC) 109 % of control | dose: 12.5 mg/kg/injection, schedule: Q01DX009 (ip), vehicle: saline 111 % of control | dose: 25.0 mg/kg/injection, schedule: Q01DX005 (ip), vehicle: saline 105 % of control and 124 % of control | dose: 25.0 mg/kg/injection, schedule: Q01DX009 (ip), vehicle: Klucel (hydroxypropylcellulose) (HPC) 91 % of control | [11] 112 % of control

O=C1OC2CC3CC2C1C3C(=O)N1CCCCC1 (centres undefined)
inactive: [7] 115 % of control | [12] 98 % of control | [8] 100 % of control | dose: 200.0 mg/kg/injection, schedule: Q04DX003 (ip), vehicle: saline 96 % of control | [9] 100 % of control | dose: 400.0 mg/kg/injection, schedule: Q04DX003 (ip), vehicle: saline 96 % of control

CCC(=O)NCC1(c2ccccc2)CCN(CC2COc3ccccc3O2)CC1 (centres undefined)
inactive: [11] 108 % of control | dose: 50.0 mg/kg/injection, schedule: Q01DX009 (ip), vehicle: saline 100 % of control | [2] 93 % of control | [12] 102 % of control

CC1Nc2ccccc2-c2ccccc2C1=O (centres undefined)
inactive: [4] 107 % of control | [5] 102 % of control | [6] 102 % of control
